Legend:
Assay type in all cases: cell-based
[1] = tested on: Wnt activity (Sp5-Luc reporter, SW480 colon carcinoma cells); test: Wnt activity screening assay, Sp5-Luc reporter gene in SW480 cells; details: Homo sapiens; for inhibition at 10 µM: given for EC50 >10 μM, read-out: percent inhibition at 10 μM; for EC50: overnight incubation
Source text: The screening assay for Wnt activity is described as follows. Reporter cell lines can be generated by stably transducing cancer cell lines (e.g., colon cancer) or primary cells (e.g., IEC-6 intestinal cells) with a lentiviral construct that includes a Wnt-responsive promoter driving expression of the firefly luciferase gene.
SW480 colon carcinoma cells were transduced with a lentiviral vector expressing luciferase with a human Sp5 promoter consisting of a sequence of eight TCF/LEF binding sites. SW480 cells stably expressing the Sp5-Luc reporter gene and a hygromycin resistance gene were selected by treatment with 150 μg/mL of hygromycin for 7 days. These stably transduced SW480 cells were expanded in cell culture and used for all further screening activities. Each compound was dissolved in DMSO as a 10 mM stock and used to prepare compound source plates. Serial dilution (1:3, 10-point dose-response curves starting from 10 μM) and compound transfer was performed using the ECHO 550 (Labcyte, Sunnyvale, Calif.) into 384-well white solid bottom assay plates (Greiner Bio-One) with appropriate DMSO backfill for a final DMSO concentration of 0.1%. For Sp5-Luc reporter gene assays, the cells were plated at 4,000 cells/well in 384-well plates with medium containing 1% fetal bovine serum and incubated overnight at 37° C. and 5% CO2. Following incubation, 20 μl of BrightGlo luminescence reagent (Promega) was added to each well of the 384-well assay plates. The plates were placed on an orbital shaker for 2 min and then luminescence was quantified using the Envision (Perkin Elmer) plate reader. Readings were normalized to DMSO only treated cells, and normalized activities were utilized for EC50 calculations using the dose-response log (inhibitor) vs. response—variable slope (four parameters) nonlinear regression feature available in GraphPad Prism 5.0 (or Dotmatics). For EC50 of >10 μM, the percent inhibition at 10 μM is provided.

[2] = tested on: SW480 colon cancer cells; test: Cell viability assay (CellTiter-Blue); details: Homo sapiens, 96 h, four days; for inhibition at 10 µM: given for EC50 >10 μM, read-out: percent inhibition at 10 μM
Description: Representative compounds were screened using the following assay procedure to assess the effect on cell viability as described below.
Each compound was dissolved in DMSO as a 10 mM stock and used to prepare compound source plates. Serial dilution (1:3, 8-point dose-response curves from 10 μM to 0.0045 μM) and compound transfer was performed using the ECHO 550 (Labcyte, Sunnyvale, Calif.) into 96-well clear bottom, black-walled plates (Corning-Costar).
Approximately 2×10^3 SW480 colon cancer cells were seeded into each well and allowed to incubate in the presence or absence of compound for four days at 37° C./5% CO2. Eight replicates of DMSO-treated cells served as controls and cells treated with compound were performed in duplicate.
After incubation, 20 μL of CellTiter-Blue (Promega) was added to each well allowed to incubate for approximately 3 hours. This reagent was a buffered solution which contains resazurin, metabolically active cells were able to reduce rezarurin (blue) into resorufin (pink) which was highly fluorescent. This measured fluorescence was used as a readout for cell viability.
After incubation, the plates were read at Ex 560 nm Em 590 nm (Cytation 3, BioTek). Dose-response curves were generated and EC50 concentration values were calculated using non-linear regression curve fit in the GraphPad Prism (San Diego, Calif.) or Dotmatics' Studies Software (Bishops Stortford, UK). For EC50 of >10 μM, the percent inhibition at 10 μM is provided.

[3] = tested on: primary human fibroblasts derived from IPF patients (LL29 cells); test: Inhibition of fibrotic process, αSMA staining in TGF-β1 treated LL29 fibroblasts; details: Fibroblast, 96 h, TGF-β1 20 ng/mL, 4 days; for EC50: % αSMA positive cells; for inhibition at 10 µM: given for EC50 >10 μM, read-out: percent inhibition at 10 μM
Source text: Representative compounds were screened using primary human fibroblasts (derived from IPF patients) treated with TGF-β1 to determine their ability to inhibit the fibrotic process.
Primary human fibroblasts derived from IPF patients (LL29 cells) [^1Xiaoqiu Liu, et. al., “Fibrotic Lung Fibroblasts Show Blunted Inhibition by cAMP Due to Deficient cAMP Response Element-Binding Protein Phosphorylation”, Journal of Pharmacology and Experimental Therapeutics (2005), 315(2), 678-687; ^2Watts, K. L., et. al., “RhoA signaling modulates cyclin D1 expression in human lung fibroblasts; implications for idiopathic pulmonary fibrosis”, Respiratory Research (2006), 7(1), 88] were obtained from American Type Culture Collection (ATCC) and expanded in F12 medium supplemented with 15% Fetal Bovine Serum and Penicillin/Streptomycin.
Each compound was dissolved in DMSO as a 10 mM stock and used to prepare compound source plates. Serial dilution (1:2, 11-point dose-response curves from […] to […]) and compound transfer was performed using the ECHO 550 (Labcyte, Sunnyvale, Calif.) into 384-well clear bottom assay plates (Greiner Bio-One) with appropriate DMSO backfill for a final DMSO concentration of 0.1%. LL29 cells are plated at 1,500 cells/well in 80 μL/well F12 medium supplemented with 1% Fetal Bovine Serum. One hour after addition of the cells, TGF-β1 (Peprotech; 20 ng/mL) was added to the plates to induce fibrosis (ref. 1 and 2 above). Wells treated with TGF-β1 and containing DMSO were used as controls. Cells were incubated at 37° C. and 5% CO2 for 4 days. Following incubation for 4 days, SYTOX green nucleic acid stain (Life Technologies [Thermo Fisher Scientific]) was added to the wells at a final concentration of 1 μM and incubated at room temperature for 30 min. Cells were then fixed using 4% formaldehyde (Electron Microscopy Sciences), washed 3 times with PBS followed by blocking and permeabilization using 3% Bovine Serum Albumin (BSA; Sigma) and 0.3% Triton X-100 (Sigma) in PBS. Cells were then stained with antibody specific to α-smooth muscle actin (αSMA; Abcam) (ref. 1 and 2 above) in 3% Bovine Serum Albumin (BSA; Sigma) and 0.3% Triton X-100 (Sigma) in PBS, and incubated overnight at 4° C. Cells were then washed 3 times with PBS, followed by incubation with Alexa Flor-647 conjugated secondary antibody (Life Technologies [Thermo Fisher Scientific]) and DAPI at room temperature for 1 hour. Cells were then washed 3 times with PBS and plates were sealed for imaging. αSMA staining was imaged by excitation at 630 nm and emission at 665 nm and quantified using the Compartmental Analysis program on the CellInsight CX5 (Thermo Scientific). Dead or apoptotic cells were excluded from analysis based on positive SYTOX green staining. % of total cells positive for αSMA were counted in each well and normalized to the average of 11 wells treated with TGF-β1 on the same plate using Dotmatics' Studies Software. The normalized averages (fold change over untreated) of 3 replicate wells for each compound concentration were used to create dose-responses curves and EC50 values were calculated using non-linear regression curve fit in the Dotmatics' Studies Software. For EC50 of >10 μM, the percent inhibition at 10 μM is provided.

Row | EC50 [1] [µM] | EC50 [2] [µM] | SMILES | inhibition at 10 µM [1] [%] | inhibition at 10 µM [2] [%] | EC50 [3] [µM] | inhibition at 10 µM [3] [%]
1 | > 10 | > 10 | O=C(Nc1cncc(-c2cnc3[nH]nc(-c4cc5c(-c6ccncc6)ccnc5[nH]4)c3c2)c1)c1ccccc1 [Compound 123, N-(5-(3-(4-(Pyridin-4-yl)-1H-pyrrolo[2,3-b]pyridin-2-yl)-1H-pyrazolo[3,4-b]pyridin-5-yl)pyridin-3-yl)benzamide] | 5.2 | 12 | > 10 | 0
2 | > 10 | > 10 | CC(C)(C)CC(=O)Nc1cncc(-c2cnc3[nH]nc(-c4cc5c(-c6ccccc6F)ccnc5[nH]4)c3c2)c1 [Compound 72, N-(5-(3-(4-(2-Fluorophenyl)-1H-pyrrolo[2,3-b]pyridin-2-yl)-1H-pyrazolo [3,4-b]pyridin-5-yl)pyridin-3-yl)-3,3-dimethylbutanamide] | 16 | 14.7 | 0.759 | –
3 | > 10 | > 10 | CCCC(=O)Nc1cncc(-c2cnc3[nH]nc(-c4cc5c(-c6ccncc6)ccnc5[nH]4)c3c2)c1 [Compound 129, N-(5-(3-(4-(Pyridin-4-yl)-1H-pyrrolo[2,3-b]pyridin-2-yl)-1H-pyrazolo[3,4-b]pyridin-5-yl)pyridin-3-yl)butyramide] | 35 | 3.8 | 0.621 | –
4 | > 10 | > 10 | CCNCc1cncc(-c2cnc3[nH]nc(-c4cc5c(-c6cccnc6)ccnc5[nH]4)c3c2)c1 [Compound 90, N-((5-(3-(4-(Pyridin-3-yl)-1H-pyrrolo[2,3-b]pyridin-2-yl)-1H-pyrazolo[3,4-b]pyridin-5-yl)pyridin-3-yl)methyl)ethanamine] | 8.2 | 17 | > 10 | 5.1
5 | > 10 | > 10 | CC(C)C(=O)Nc1cncc(-c2cnc3[nH]nc(-c4cc5c(-c6ccccc6F)ccnc5[nH]4)c3c2)c1 [Compound 65, N-(5-(3-(4-(2-Fluorophenyl)-1H-pyrrolo[2,3-b]pyridin-2-yl)-1H-pyrazolo [3,4-b]pyridin-5-yl)pyridin-3-yl)isobutyramide] | 30.8 | 32.1 | 0.812 | –
6 | > 10 | > 10 | c1cnc2[nH]c(-c3n[nH]c4ncc(-c5ccncc5)cc34)cc2c1 [Compound 270, 5-(Pyridin-4-yl)-3-(1H-pyrrolo[2,3-b]pyridin-2-yl)-1H-pyrazolo[3,4-b]pyridine] | 0 | 23.9 | > 10 | 55.6
7 | > 10 | > 10 | O=C(Nc1cncc(-c2cnc3[nH]nc(-c4cc5c(-c6cccc(F)c6)ccnc5[nH]4)c3c2)c1)C1CC1 [Compound 20, N-(5-(3-(4-(3-Fluorophenyl)-1H-pyrrolo[2,3-b]pyridin-2-yl)-1H-pyrazolo [3,4-b]pyridin-5-yl)pyridin-3-yl)cyclopropanecarboxamide] | 57.3 | 51.4 | 2.63 | –
8 | > 10 | 0.643 | O=C(Nc1cncc(-c2cnc3[nH]nc(-c4cc5c(-c6cccc(F)c6)ccnc5[nH]4)c3c2)c1)c1ccccc1 [Compound 11, N-(5-(3-(4-(3-Fluorophenyl)-1H-pyrrolo[2,3-b]pyridin-2-yl)-1H-pyrazolo [3,4-b]pyridin-5-yl)pyridin-3-yl)benzamide] | 10 | – | 0.32 | –
9 | > 10 | > 10 | CC(C)(C)CC(=O)Nc1cncc(-c2cnc3[nH]nc(-c4cc5c(-c6ccncc6)ccnc5[nH]4)c3c2)c1 [Compound 128, 3,3-Dimethyl-N-(5-(3-(4-(pyridin-4-yl)-1H-pyrrolo[2,3-b]pyridin-2-yl)-1H-pyrazolo[3,4-b]pyridin-5-yl)pyridin-3-yl)butanamide] | 0 | 10.7 | > 10 | 0
10 | > 10 | > 10 | CN(C)CCNc1cc(F)cc(-c2ccnc3[nH]c(-c4n[nH]c5ncc(-c6cncc(NC(=O)C7CCC7)c6)cc45)cc23)c1 [Compound 469, N-(5-(3-(4-(3-((2-(Dimethylamino)ethyl)amino)-5-fluorophenyl)-1H-pyrrolo [2,3-b]pyridin-2-yl)-1H-pyrazolo[3,4-b]pyridin-5-yl)pyridin-3-yl)cyclobutanecarboxamide] | 47.5 | 0 | > 10 | 0
11 | > 10 | > 10 | CCCC(=O)Nc1cncc(-c2cnc3[nH]nc(-c4cc5c(N6CCCCC6)ccnc5[nH]4)c3c2)c1 [Compound 185, N-(5-(3-(4-(Piperidin-1-yl)-1H-pyrrolo[2,3-b]pyridin-2-yl)-1H-pyrazolo[3,4-b]pyridin-5-yl)pyridin-3-yl)butyramide] | 10.9 | 4.9 | > 10 | 0

Row | SMILES | EC50 [1] [µM] | EC50 [2] [µM] | inhibition at 10 µM [1] [%] | inhibition at 10 µM [2] [%] | EC50 [3] [µM] | inhibition at 10 µM [3] [%]
12 | O=C(Nc1cncc(-c2cnc3[nH]nc(-c4cc5cccnc5[nH]4)c3c2)c1)C1CCCCC1 [Compound 275, N-(5-(3-(1H-Pyrrolo[2,3-b]pyridin-2-yl)-1H-pyrazolo[3,4-b]pyridin-5-yl)pyridin-3-yl)cyclohexanecarboxamide] | 1.26 | 2.43 | – | – | 1.56 | –
